# Experimental data published in PMC12602806, “Itaconate reduces viral endocytosis by targeting Cys128 of the adaptor-related protein complex 1 gamma 1 subunit in the host, providing a novel target for antiviral drug development” (Molecular Biomedicine, 2025).
# Molecular target: T1, AP1G1 (Homo sapiens, UniProt O43747)
# T1 construct: endogenous full-length AP1G1 in BEAS-2B cells or lysate; untagged
# T1 sequence (O43747 1-822): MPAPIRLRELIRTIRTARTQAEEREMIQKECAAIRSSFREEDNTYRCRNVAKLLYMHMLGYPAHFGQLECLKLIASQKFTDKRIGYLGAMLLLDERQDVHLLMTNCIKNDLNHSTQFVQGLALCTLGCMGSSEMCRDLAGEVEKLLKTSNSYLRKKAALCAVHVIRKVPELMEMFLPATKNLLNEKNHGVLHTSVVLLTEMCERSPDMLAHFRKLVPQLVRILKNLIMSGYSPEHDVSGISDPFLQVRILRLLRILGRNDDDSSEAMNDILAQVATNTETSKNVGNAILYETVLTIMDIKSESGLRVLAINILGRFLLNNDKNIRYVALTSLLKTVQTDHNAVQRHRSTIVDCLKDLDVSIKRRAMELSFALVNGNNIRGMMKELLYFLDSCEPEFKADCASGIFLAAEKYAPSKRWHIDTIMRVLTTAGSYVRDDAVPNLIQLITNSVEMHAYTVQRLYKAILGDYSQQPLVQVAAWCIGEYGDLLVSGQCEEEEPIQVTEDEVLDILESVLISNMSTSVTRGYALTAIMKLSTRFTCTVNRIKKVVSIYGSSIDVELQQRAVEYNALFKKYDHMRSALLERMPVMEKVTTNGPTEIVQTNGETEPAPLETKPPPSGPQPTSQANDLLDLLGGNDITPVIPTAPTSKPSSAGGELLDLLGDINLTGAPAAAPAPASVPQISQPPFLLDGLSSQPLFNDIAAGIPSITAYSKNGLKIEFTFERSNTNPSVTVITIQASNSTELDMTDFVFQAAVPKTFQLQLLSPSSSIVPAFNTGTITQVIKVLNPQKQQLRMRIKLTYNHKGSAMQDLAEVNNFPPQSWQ
# Assay: CETSA-Western blot
# Type: cell-based
# Conditions: 40-65 ℃; covalent; Cys128; also competes with ITAP in BEAS-2B lysate
smiles,measurement,value
C=C(CC(=O)O)C(=O)O [itaconate],CETSA-Western blot,Itaconate treatment significantly altered the thermal stability of AP1G1
